From patent US11891365B2, “3-alkyl-4-amido-bicyclic [4,5,0] hydroxamic acids as HDAC inhibitors” (Valo Health, Inc., priority 2015, dated 2024)

Target: T1, Full length human recombinant HDAC6 protein (Homo sapiens, UniProt Q9UBN7)
T1 sequence (Q9UBN7 1-1215): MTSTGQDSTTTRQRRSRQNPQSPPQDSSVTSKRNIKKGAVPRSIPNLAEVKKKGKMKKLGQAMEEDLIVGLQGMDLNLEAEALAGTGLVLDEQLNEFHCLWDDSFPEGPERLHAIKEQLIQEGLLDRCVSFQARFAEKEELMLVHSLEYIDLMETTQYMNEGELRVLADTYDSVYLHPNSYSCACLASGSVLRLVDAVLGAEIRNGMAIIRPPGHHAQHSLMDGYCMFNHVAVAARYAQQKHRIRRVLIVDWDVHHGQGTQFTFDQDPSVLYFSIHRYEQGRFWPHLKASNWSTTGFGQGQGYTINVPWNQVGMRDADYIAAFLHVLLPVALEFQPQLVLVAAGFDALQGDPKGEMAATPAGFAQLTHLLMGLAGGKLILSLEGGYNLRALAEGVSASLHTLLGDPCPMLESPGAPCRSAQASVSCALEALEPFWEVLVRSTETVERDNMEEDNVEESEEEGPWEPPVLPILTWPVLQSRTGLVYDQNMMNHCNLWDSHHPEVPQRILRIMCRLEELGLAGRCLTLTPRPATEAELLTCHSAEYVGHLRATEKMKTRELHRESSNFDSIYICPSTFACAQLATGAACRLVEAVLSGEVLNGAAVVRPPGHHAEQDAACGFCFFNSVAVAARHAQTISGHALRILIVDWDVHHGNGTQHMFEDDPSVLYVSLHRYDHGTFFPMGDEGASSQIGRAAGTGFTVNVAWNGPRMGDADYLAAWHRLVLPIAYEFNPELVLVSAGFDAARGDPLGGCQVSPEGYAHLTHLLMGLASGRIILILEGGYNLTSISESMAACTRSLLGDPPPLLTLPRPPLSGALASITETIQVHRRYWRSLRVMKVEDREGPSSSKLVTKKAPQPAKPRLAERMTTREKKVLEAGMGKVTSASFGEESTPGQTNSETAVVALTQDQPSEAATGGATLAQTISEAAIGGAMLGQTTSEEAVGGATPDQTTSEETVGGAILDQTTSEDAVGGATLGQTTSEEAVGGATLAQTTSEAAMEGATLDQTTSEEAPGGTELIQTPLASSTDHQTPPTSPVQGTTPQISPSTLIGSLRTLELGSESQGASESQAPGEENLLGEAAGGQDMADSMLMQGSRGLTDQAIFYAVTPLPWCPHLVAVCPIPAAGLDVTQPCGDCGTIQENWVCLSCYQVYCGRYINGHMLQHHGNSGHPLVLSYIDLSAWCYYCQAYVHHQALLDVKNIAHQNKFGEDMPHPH
Assay: In vitro histone deacetylase assay: enzymatic HDAC6 electrophoretic mobility shift assay
Assay type: biochemical
Details: 1 nM enzyme, 2 μM peptide substrate RHKK(Ac)-NH2, 25° C., 12 concentrations; read-out: Inhibitory Concentration (IC50) Values against HDAC6, Activity Range

IC50 [µM]	SMILES
> 0.5	C[C@H]1c2cc(C(=O)NO)ccc2OCCN1C(=O)C1CCOCC1 [(S)-N-hydroxy-5-methyl-4-(tetrahydro-2H-pyran-4-carbonyl)-2,3,4,5-tetrahydrobenzo[f][1,4]oxazepine-7-carboxamide]
≤ 0.1	C[C@H]1c2ccc(C(=O)NO)cc2OCCN1C(=O)C1CCOCC1 [(S)-N-hydroxy-5-methyl-4-(tetrahydro-2H-pyran-4-carbonyl)-2,3,4,5-tetrahydrobenzo[f][1,4]oxazepine-8-carboxamide]
0.1 to 0.5	CN(C)C(=O)C1CN(C(=O)C2CCOCC2)Cc2ccc(C(=O)NO)cc2O1 (centres unmarked) [N8-hydroxy-N2,N2-dimethyl-4-(tetrahydro-2H-pyran-4-carbonyl)-2,3,4,5-tetrahydrobenzo[f][1,4]oxazepine-2,8-dicarboxamide]
> 0.5	CC1(C(=O)N2Cc3ccc(C(=O)NO)cc3OCC2(C)C)CCC1 [N-hydroxy-3,3-dimethyl-4-(1-methylcyclobutane-1-carbonyl)-2,3,4,5-tetrahydrobenzo[f][1,4]oxazepine-8-carboxamide]
≤ 0.1	O=C(NO)c1ccc2c(c1)OCCN(C(=O)C1(c3ccccc3C(F)(F)F)CC1)C2 [N-hydroxy-4-(1-(2-(trifluoromethyl)phenyl)cyclopropane-1-carbonyl)-2,3,4,5-tetrahydrobenzo[f][1,4]oxazepine-8-carboxamide]
≤ 0.1	O=C(NO)c1ccc2c(c1)OCCN(C(=O)C1(c3cccc(C(F)(F)F)c3)CC1)C2 [N-hydroxy-4-(1-(3-(trifluoromethyl)phenyl)cyclopropane-1-carbonyl)-2,3,4,5-tetrahydrobenzo[f][1,4]oxazepine-8-carboxamide]
≤ 0.1	COc1cccc(C2(C(=O)N3CCOc4cc(C(=O)NO)ccc4C3)CC2)c1 [N-hydroxy-4-(1-(3-methoxyphenyl)cyclopropane-1-carbonyl)-2,3,4,5-tetrahydrobenzo[f][1,4]oxazepine-8-carboxamide]
≤ 0.1	O=C(NO)c1ccc2c(c1)OCCN(C(=O)C1(c3ccc(C(F)(F)F)cc3)CC1)C2 [N-hydroxy-4-(1-(4-(trifluoromethyl)phenyl)cyclopropane-1-carbonyl)-2,3,4,5-tetrahydrobenzo[f][1,4]oxazepine-8-carboxamide]
≤ 0.1	COc1ccc(C2(C(=O)N3CCOc4cc(C(=O)NO)ccc4C3)CC2)cc1 [N-hydroxy-4-(1-(4-methoxyphenyl)cyclopropane-1-carbonyl)-2,3,4,5-tetrahydrobenzo[f][1,4]oxazepine-8-carboxamide]
≤ 0.1	COCC1(C(=O)N2CCOc3cc(C(=O)NO)ccc3C2)CCC1 [N-hydroxy-4-(1-(methoxymethyl)cyclobutane-1-carbonyl)-2,3,4,5-tetrahydrobenzo[f][1,4]oxazepine-8-carboxamide]
≤ 0.1	COCC1(C(=O)N2CCOc3cc(C(=O)NO)ccc3C2)CC1 [N-hydroxy-4-(1-(methoxymethyl)cyclopropane-1-carbonyl)-2,3,4,5-tetrahydrobenzo[f][1,4]oxazepine-8-carboxamide]
≤ 0.1	O=C(NO)c1ccc2c(c1)OCCN(C(=O)C1(S(=O)(=O)c3ccccc3)CC1)C2 [N-hydroxy-4-(1-(phenylsulfonyl)cyclopropane-1-carbonyl)-2,3,4,5-tetrahydrobenzo[f][1,4]oxazepine-8-carboxamide]
≤ 0.1	O=C(NO)c1ccc2c(c1)OCCN(C(=O)C1(c3cnccn3)CC1)C2 [N-hydroxy-4-(1-(pyrazin-2-yl)cyclopropane-1-carbonyl)-2,3,4,5-tetrahydrobenzo[f][1,4]oxazepine-8-carboxamide]
≤ 0.1	O=C(NO)c1ccc2c(c1)OCCN(C(=O)C1(c3ccccn3)CC1)C2 [N-hydroxy-4-(1-(pyridin-2-yl)cyclopropane-1-carbonyl)-2,3,4,5-tetrahydrobenzo[f][1,4]oxazepine-8-carboxamide]
≤ 0.1	O=C(NO)c1ccc2c(c1)OCCN(C(=O)C1(c3ccncc3)CC1)C2 [N-hydroxy-4-(1-(pyridin-4-yl)cyclopropane-1-carbonyl)-2,3,4,5-tetrahydrobenzo[f][1,4]oxazepine-8-carboxamide]
≤ 0.1	O=C(NO)c1ccc2c(c1)OCCN(C(=O)C1(c3cccs3)CC1)C2 [N-hydroxy-4-(1-(thiophen-2-yl)cyclopropane-1-carbonyl)-2,3,4,5-tetrahydrobenzo[f][1,4]oxazepine-8-carboxamide]

IC50 [µM]	SMILES
> 0.5	O=C(NO)c1ccc2c(c1)OCCN(C(=O)C1(O)CC1)C2 [N-hydroxy-4-(1-hydroxycyclopropane-1-carbonyl)-2,3,4,5-tetrahydrobenzo[f][1,4]oxazepine-8-carboxamide]
≤ 0.1	COC1(C(=O)N2CCOc3cc(C(=O)NO)ccc3C2)CCC1 [N-hydroxy-4-(1-methoxycyclobutane-1-carbonyl)-2,3,4,5-tetrahydrobenzo[f][1,4]oxazepine-8-carboxamide]
≤ 0.1	COC1(C(=O)N2CCOc3cc(C(=O)NO)ccc3C2)CC1 [N-hydroxy-4-(1-methoxycyclopropane-1-carbonyl)-2,3,4,5-tetrahydrobenzo[f][1,4]oxazepine-8-carboxamide]
≤ 0.1	Cn1c(C(=O)N2CCOc3cc(C(=O)NO)ccc3C2)cc2ccccc21 [N-hydroxy-4-(1-methyl-1H-indole-2-carbonyl)-2,3,4,5-tetrahydrobenzo[f][1,4]oxazepine-8-carboxamide]
≤ 0.1	Cn1ccc(C(=O)N2CCOc3cc(C(=O)NO)ccc3C2)n1 [N-hydroxy-4-(1-methyl-1H-pyrazole-3-carbonyl)-2,3,4,5-tetrahydrobenzo[f][1,4]oxazepine-8-carboxamide]
≤ 0.1	Cn1cccc1C(=O)N1CCOc2cc(C(=O)NO)ccc2C1 [N-hydroxy-4-(1-methyl-1H-pyrrole-2-carbonyl)-2,3,4,5-tetrahydrobenzo[f][1,4]oxazepine-8-carboxamide]
> 0.5	Cn1cc(C(=O)N2CCOc3cc(C(=O)NO)ccc3C2)ccc1=O [N-hydroxy-4-(1-methyl-6-oxo-1,6-dihydropyridine-3-carbonyl)-2,3,4,5-tetrahydrobenzo[f][1,4]oxazepine-8-carboxamide]
≤ 0.1	CC1(C(=O)N2CCOc3cc(C(=O)NO)ccc3C2)CCC1 [N-hydroxy-4-(1-methylcyclobutane-1-carbonyl)-2,3,4,5-tetrahydrobenzo[f][1,4]oxazepine-8-carboxamide]
0.1 to 0.5	CC1(C(=O)N2CC(=O)Nc3ccc(C(=O)NO)cc3C2)CCC1 [N-hydroxy-4-(1-methylcyclobutane-1-carbonyl)-2-oxo-2,3,4,5-tetrahydro-1H-benzo[e][1,4]diazepine-7-carboxamide]
≤ 0.1	CC1(C(=O)N2CCOc3cc(C(=O)NO)ccc3C2)CCCCC1 [N-hydroxy-4-(1-methylcyclohexane-1-carbonyl)-2,3,4,5-tetrahydrobenzo[f][1,4]oxazepine-8-carboxamide]
≤ 0.1	CC1(C(=O)N2CCOc3cc(C(=O)NO)ccc3C2)CCCC1 [N-hydroxy-4-(1-methylcyclopentane-1-carbonyl)-2,3,4,5-tetrahydrobenzo[f][1,4]oxazepine-8-carboxamide]
≤ 0.1	CC1(C(=O)N2CCOc3cc(C(=O)NO)ccc3C2)CC1 [N-hydroxy-4-(1-methylcyclopropane-1-carbonyl)-2,3,4,5-tetrahydrobenzo[f][1,4]oxazepine-8-carboxamide]
0.1 to 0.5	O=C(NO)c1ccc2c(c1)OCCN(C(=O)C1(Oc3ccccc3)CC1)C2 [N-hydroxy-4-(1-phenoxycyclopropane-1-carbonyl)-2,3,4,5-tetrahydrobenzo[f][1,4]oxazepine-8-carboxamide]
≤ 0.1	O=C(NO)c1ccc2c(c1)OCCN(C(=O)C1(c3ccccc3)CCC1)C2 [N-hydroxy-4-(1-phenylcyclobutane-1-carbonyl)-2,3,4,5-tetrahydrobenzo[f][1,4]oxazepine-8-carboxamide]
≤ 0.1	O=C(NO)c1ccc2c(c1)OCCN(C(=O)C1(c3ccccc3)CC1)C2 [N-hydroxy-4-(1-phenylcyclopropane-1-carbonyl)-2,3,4,5-tetrahydrobenzo[f][1,4]oxazepine-8-carboxamide]
≤ 0.1	O=C(NO)c1ccc2c(c1)OCCN(C(=O)c1ccc3[nH]ccc3c1)C2 [N-hydroxy-4-(1H-indole-5-carbonyl)-2,3,4,5-tetrahydrobenzo[f][1,4]oxazepine-8-carboxamide]
